Structures can show the parent of a compound that is named as a salt.
Tests used:
[1] = target: CB1-receptor (UniProt P20272); experiment: In-vitro determination of affinity (binding) to the CB1-receptor, radioligand [3H]-CP55940; settings: Pharmacological methods part I
Description: 1. In-vitro determination of affinity to CB1CB2-Receptors
The in-vitro determination of the affinity of the inventive substituted pyrazoline compounds to CB1/CB2-Rezeptors is carded out as described in the publication of Ruth A. Ross, Heather C. Brockie et al., “Agonist-inverse agonist characterization at CB1 and CB2 cannabinoid receptors of L-759633, L759656 and AM630”, British Journal of Pharmacology, 126, 665-672, (1999), whereby the transfected human CB1 and CB2 receptors of Receptor Biology, Inc. are used. The radioligand used for both receptors is [^3H]-CP55940. The respective parts of the description is hereby incorporated by reference and forms part of the present disclosure. […]
Binding affinity to CB1 receptor was evaluated according to a modification of the method described by Govaerts et al., Eur J Pharmac Sci 23, 233-243 (2004). […]
Briefly, cerebellum from male wistar rats (250-300 g) were carefully dissected on ice and homogenates were prepared with Potter-Helveheim in a cold 50 mM Tris-HCl solution containing 5 mM MgCl2, 1 mM EDTA and 0.25 M sucrose, pH 7.4. […] Total protein concentration was determined using the Bio-Rad Lowry method based kit. […] Compounds were present at various concentrations and the non specific binding was determined in the presence of 10 μM HU-210. […]
Binding data were analyzed by non-linear regression with the software GraphPad Prism Version 3.03. […]

[2] = Chronic administration in animals made obese by a simplified cafeteria diet; assay type: in vivo, rats
[3] = Effect of continued administration on body weight in rats; assay type: in vivo; settings: 10 mg/kg i.p. once daily
Procedure: V. Determination of the Effect of Continued Administration of the Inventive Compounds on Body Weight in Rats
The weight of the animals was measured for 36 days, and the data grouped into 3 periods for analysis. Period 1, days 1-8 (period for adaptation of the animals to the environmental conditions: one week without treatment plus first day of treatment); Period 2, days 9-22 (treatment period: two weeks); Period 3, days 23-36 (escape treatment period: two weeks). The administration of the drugs started on day 8, immediately after the animal was weighted, and finished on day 21. The treatment period ranges between one day after first administration and one day after last administration. The drugs were administered i.p. once daily. For comparative purposes, absolute weights were transformed into relative percentages (each weight was divided by that of day 8 and multiplied by 100). […] All results are expressed as mean±S.E.M.
The dependence of body-weight (expressed as a percentage relative to day 8) on time (number of days after inclusion in the study) and treatment was assessed by a two-way (time, treatment) analysis of variance (ANOVA) with repeated measures on the time factor. […] The differences between pairs of curves (treatments) were analyzed using appropriate contrasts within the ANOVA test. […]

[4] = target: T1, recombinant human cannabinoid 1 receptor (CB1) (Homo sapiens, UniProt P21554); experiment: [35S]GTPγS binding assay, antagonism to CB1-receptor in CHO cell membranes; assay type: biochemical; settings: compound 1 μM versus agonist WIN 55,212-2; 100% = difference between maximal WIN 55,212-2 effect alone and with Rimonabant (1 μM)
T1 construct: expressed in transfected cells; membrane preparation
T1 sequence (P21554 whole entry): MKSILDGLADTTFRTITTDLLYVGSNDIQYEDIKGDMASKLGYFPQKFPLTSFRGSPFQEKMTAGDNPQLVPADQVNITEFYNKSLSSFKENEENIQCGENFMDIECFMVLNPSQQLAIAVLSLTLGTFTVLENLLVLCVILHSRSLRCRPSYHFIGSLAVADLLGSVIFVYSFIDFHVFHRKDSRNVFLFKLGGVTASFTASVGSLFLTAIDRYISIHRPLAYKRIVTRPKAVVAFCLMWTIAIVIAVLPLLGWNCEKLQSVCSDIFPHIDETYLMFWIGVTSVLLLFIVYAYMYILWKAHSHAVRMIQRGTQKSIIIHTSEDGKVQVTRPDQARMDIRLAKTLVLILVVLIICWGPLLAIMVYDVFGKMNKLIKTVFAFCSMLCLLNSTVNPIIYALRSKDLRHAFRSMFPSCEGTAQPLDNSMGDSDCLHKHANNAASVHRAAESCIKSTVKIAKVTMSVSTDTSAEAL
Procedure: VI. In Vitro Determination of Antagonism to CB1-Receptor
Chinese hamster ovary (CHO) cells stably expressing recombinant human cannabinoid 1 receptor (CB1) were cultured in nutrient mixture Ham's F 12 supplemented with 10% heat-inactivated fetal bovine serum, 2 mM L-glutamine, 50 U/ml penicillin, 50 U/ml streptomycin and 0.5 mg/ml geneticin. In order to obtain cells, culture flasks were washed twice with phosphate buffered saline and scraped. Then, cells were collected by centrifugation (200×g, 10 min) and stored dry at −80° C. Cells were homogenized in ice-cold 20 mM HEPES, 10 mM EDTA (pH 7.5) and centrifuged at 40,000×g for 15 min at 4° C. The membrane pellet was resuspended in 20 mM HEPES, 0.1 mM EDTA (pH 7.5) and centrifuged for 15 min at 4° C. The final membrane pellet was resuspended in 20 mM HEPES, 0.1 mM EDTA (pH 7.5), and divided in aliquots and stored at −80° C. until use.
The reaction was performed in 96-well plates. […] Radioactivity was determined using a Wallac Microbeta Trilux. […]
The antagonism of the pyrazoline compounds of general formula I to the CB1-receptor was determined according to the method described in Pharmacological methods, part VI (table 2).

O=C(NN1CCCCC1)C1=NN(c2ccc(Cl)cc2Cl)[C@@H](c2ccc(Cl)cc2)C1 [A, (R)-N-piperidinyl-5-(4chlorophenyl)-1-(2,4-dichlorophenyl)-4,5-dihydro-1H-pyrazole-3-carboxamide]
IC50 [1]: 16.1 nM | body weight on chronic administration ([2]; animals made obese by cafeteria diet (high-fat diet, chocolate, ground peanuts)): significantly decreased body weight | body weight after 28 days of drug treatment versus vehicle-treated controls ([2]; obese rats, 28 days of treatment): lower than those of the vehicle-treated controls | effect on body weight ([3]; days 8-21, FIG. 1): stronger action than the racemate | recovery of weight after treatment ([3]; escape period days 23-36, FIG. 1): slower recovery of weight | Antagonism [%] [4]: 106%

O=C(NN1CCCCC1)C1=NN(c2ccc(Cl)cc2Cl)[C@@H](c2ccc(Cl)cc2)C1 [A-Hydrochloride]
IC50 [1]: 20 nM | Antagonism [%] [4]: 113%

Reference: patent US20070015810A1, “5(R)-Substituted Pyrazoline Compounds, their Preparation and Use as Medicaments” (LABORATORIOS DEL DR. ESTEVE, S.A., priority 2005, published 2007)
